Converted amounts (≈) assume the structure as drawn.

We go through one molecule from ChEMBL document CHEMBL1159240, “(-)-Roemerine, an aporphine alkaloid from Annona senegalensis that reverses the multidrug-resistance phenotype with cultured cells” (1995).

Experiment [1] concerns P388. As to the kind of experiment: Cytotoxicity against mouse P388 cells after 72 hrs by SRB assay. The class given is functional. As to conditions: P388, 72 h, read-out: ED50 (the source's name). In general terms: Sulforhodamine B stains cellular protein and so reports cell mass.
The subject of experiment [2] is Col2. Briefly: Cytotoxicity against human Col2 cells after 72 hrs by SRB assay. The class given is functional. As to conditions: Col2, 72 h, read-out: ED50 (the source's name).
The nature of experiment [3]: Cytotoxicity against human KB3 cells after 72 hrs by SRB assay. Format: functional. The conditions noted are these: KB3, 72 h, read-out: ED50 (the source's name).
Experiment [4] has as its system Lu1. Briefly: Cytotoxicity against human Lu1 cells after 72 hrs by SRB assay. The class given is functional. The conditions noted are these: Lu1, 72 h, read-out: ED50 (the source's name).
Experiment [5] relates to LNCaP. Briefly: Cytotoxicity against human LNCAP cells after 72 hrs by SRB assay. Format: functional. The conditions noted are these: read-out: ED50 (the source's name).
A short description of experiment [6]: Cytotoxicity against human multidrug resistant KBV1 cells in presence of vinblastine. As to conditions: KB-V1, read-out: ED50 (the source's name). Format: functional.
In experiment [7] the test system is SK-MEL-2. Briefly: Cytotoxicity against human SK-MEL-2 cells after 72 hrs by SRB assay. Format: functional. The conditions noted are these: SK-MEL-2, 72 h, read-out: ED50 (the source's name).
Experiment [8] in a line: Cytotoxicity against human multidrug resistant KBV1 cells in absence of vinblastine after 72 hrs by SRB assay. The conditions noted are these: KB-V1, 72 h, read-out: ED50 (the source's name). The class given is functional.
The subject of experiment [9] is ZR-75-1. Briefly: Cytotoxicity against human ZR-75-1 cells after 72 hrs by SRB assay. Format: functional. The conditions noted are these: ZR-75-1, 72 h, read-out: ED50 (the source's name).
Experiment [10] can be described thus: Cytotoxicity against human BC1 cells after 72 hrs by SRB assay. The class given is functional. The conditions noted are these: BC1, 72 h, read-out: ED50 (the source's name).
Experiment [11] can be described thus: Cytotoxicity against human U373 cells after 72 hrs by SRB assay. The class given is functional, U-373MG ATCC. As to conditions: U373 MG, read-out: ED50 (the source's name).
Experiment [12] concerns A-431. Briefly: Cytotoxicity against human A431 cells after 72 hrs by SRB assay. As to conditions: A-431, 72 h, read-out: ED50 (the source's name). The class given is functional.
Experiment [13] relates to HT. Briefly: Cytotoxicity against human HT cells after 72 hrs by SRB assay. The class given is functional. The conditions noted are these: read-out: ED50 (the source's name).

As for `CN1CCc2cc3c(c4c2[C@H]1Cc1ccccc1-4)OCO3`, the EC50 was greater than 5 µg/mL in experiment [1]; 5.8 µg/mL (≈ 20.8 µM) in [2]; greater than 20 µg/mL in experiment [3]; 6.6 µg/mL (≈ 23.6 µM) in experiment [4]; 10.7 µg/mL (≈ 38.3 µM) in experiment [5]; 0.6 µg/mL in [6]. Further, the EC50 was greater than 20 µg/mL in [7]; greater than 20 µg/mL in experiment [8]; greater than 20 µg/mL in [9]; 8.3 µg/mL (≈ 29.7 µM) in [10]; 5 µg/mL (≈ 17.9 µM) in [11]; 4.3 µg/mL (≈ 15.4 µM) in experiment [12]. Moreover, the EC50 in experiment [13] is 6.4 µg/mL (≈ 22.9 µM).
